Test results reported in patent publication US6737383B1, “Herbicidal oxadiazolidines” (priority 1999, dated 2004).

Legend:
[1] = system: blackgrass; assay: Test B pre/postemergence blackgrass; format: in vivo, Alopecurus myosuroides
Method in brief: (§1)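 Response is a visual 0-to-10 score relative to untreated plants, where 0 means no effect and 10 means complete control, taken twelve to sixteen days after application. Treatments went onto soil at planting and onto foliage of 1- to 4-leaf plants, using a surfactant-containing non-phytotoxic solvent.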

[2] = system: bedstraw; assay: Test B pre/postemergence bedstraw; format: in vivo, Galium aparine
Method in brief: as §1

[3] = system: bamyardgrass; assay: Test B flood test barnyardgrass; format: in vivo, Echinochloa crus-galli
Method in brief: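 Each value is a visual injury score relative to controls, with 10 meaning complete control and 0 no effect. Evaluation took place twelve to sixteen days after the 2-leaf-stage plants were treated and kept in the greenhouse.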

[4] = system: surinam grass; assay: Test B pre/postemergence surinam grass; format: in vivo, Brachiaria decumbens
Method in brief: as §1

[5] = Postemergence, Rate 31 g/ha, visual rating, scale 0 to 10 (0 no effect, 10 complete control)
[6] = Preemergence, Rate 31 g/ha, visual rating, scale 0 to 10 (0 no effect, 10 complete control)
[7] = Preemergence, Rate 62 g/ha, scale of 0 to 10 where 0 is no effect and 10 is complete control
[8] = Preemergence, Rate 250 g/ha, scale of 0 to 10 where 0 is no effect and 10 is complete control
[9] = Rate 62 g/ha, Postemergence, scale 0 to 10, 0 no effect, 10 complete control
[10] = Rate 125 g/ha, Postemergence, scale of 0 to 10 where 0 is no effect and 10 is complete control
[11] = Rate 250 g/ha, Postemergence, scale of 0 to 10 where 0 is no effect and 10 is complete control
[12] = Postemergence, Rate 62 g/ha, scale 0 to 10, 0 is no effect, 10 is complete control
[13] = Postemergence, Rate 125 g/ha, scale of 0 to 10 where 0 is no effect and 10 is complete control
[14] = Preemergence, Rate 125 g/ha, scale of 0 to 10 where 0 is no effect and 10 is complete control
[15] = Preemergence, Rate 250 g/ha, scale 0 (no effect) to 10 (complete control)
[16] = Rate 62 g/ha, Preemergence, scale 0 to 10
[17] = Rate 250 g/ha, Postemergence, scale 0 to 10, 0 is no effect, 10 is complete control
[18] = Rate 500 g/ha, Postemergence, scale 0 to 10, 0 is no effect, 10 is complete control
[19] = Rate 500 g/ha, Preemergence, scale 0 to 10 (0 no effect, 10 complete control)

Q: With `COCC(C)N(C(=O)n1oc(=O)n(-c2ccccc2C)c1=O)c1ccc(F)cc1` (stereo not shown) [Compound 324] as the molecule, how does the “Blackgrass plant response rating” value [1, 5] read?
A: 0

Q: What about the “Blackgrass plant response rating” value [1, 6] of the same molecule?
A: 0

Q: And the “Blackgrass plant response rating” value [1, 7]?
A: 0

Q: And the “Blackgrass plant response rating (0 to 10 scale)” value ([1]; Preemergence, Rate 125 g/ha)?
A: 0

Q: And the “Blackgrass plant response rating” value [1, 8]?
A: 0

Q: And the “Blackgrass plant response rating” value [1, 9]?
A: 0

Q: What about the “Blackgrass plant response rating” value [1, 10] of the same molecule?
A: 0

Q: What about the “Plant response rating, Blackgrass” value [1, 11] of the same molecule?
A: 0

Q: What about the “Bedstraw plant response rating” value [2, 5] of the same molecule?
A: 0

Q: What about the “Bedstraw plant response rating” value [2, 6] of the same molecule?
A: 0

Q: What about the “Bedstraw plant response rating” value [2, 7] of the same molecule?
A: 0

Q: What about the “Bedstraw plant response rating (0 to 10 scale)” value ([2]; Preemergence, Rate 125 g/ha) of the same molecule?
A: 0

Q: What about the “Bedstraw plant response rating” value [2, 8] of the same molecule?
A: 0

Q: What about the “Bedstraw plant response rating” value [2, 9] of the same molecule?
A: 0

Q: What about the “Bedstraw plant response rating” value [2, 10] of the same molecule?
A: 0

Q: And the “Plant response rating, Bedstraw” value [2, 11]?
A: 0

Q: What about the “Barnyardgrass plant response rating” value ([3]; Rate 31 g/ha, Pre-emergence section (flood test species), scale 0 to 10) of the same molecule?
A: 0

Q: And the “Barnyardgrass plant response rating” value ([3]; Rate 62 g/ha, headed Pre-emergence (flood test species), scale 0 to 10 (0 no effect, 10 complete control))?
A: 0

Q: What about the “Barnyardgrass plant response rating” value ([3]; Rate 125 g/ha, Pre-emergence, flood test species, scale 0 to 10 where 0 is no effect and 10 is complete control) of the same molecule?
A: 0

Q: And the “Barnyardgrass plant response rating” value ([3]; Rate 250 g/ha, Pre-emergence, flood-test species, scale 0 to 10, 0 is no effect, 10 is complete control)?
A: 0

Q: What about the “B. signalgrass plant response rating” value [4, 5] of the same molecule?
A: 0

Q: And the “B. signalgrass plant response rating” value [4, 6]?
A: 0

Q: What about the “B. signalgrass plant response rating” value [4, 7] of the same molecule?
A: 0

Q: What about the “B. signalgrass plant response rating (0 to 10 scale, 0 is no effect, 10 is complete control)” value ([4]; Preemergence, Rate 125 g/ha) of the same molecule?
A: 0

Q: And the “B. signalgrass plant response rating” value [4, 8]?
A: 0

Q: What about the “B. signalgrass plant response rating” value [4, 9] of the same molecule?
A: 0

Q: What about the “B. signalgrass plant response rating” value [4, 10] of the same molecule?
A: 0

Q: What about the “Plant response rating, B. signalgrass” value [4, 11] of the same molecule?
A: 0

Q: For `CC(C)N(C(=O)n1oc(=O)n(CC2=NOCCO2)c1=O)c1ccc(F)cc1F` [Compound 758], which “Plant response rating, Blackgrass” value [1, 12] is on record?
A: 3

Q: And the “Blackgrass plant response rating” value [1, 13]?
A: 6

Q: And the “Plant response rating, Blackgrass” value [1, 14]?
A: 8

Q: What about the “Blackgrass plant response rating” value [1, 15] of the same molecule?
A: 8

Q: What about the “Blackgrass plant response rating” value [1, 16] of the same molecule?
A: 6

Q: What about the “Blackgrass plant response rating” value [1, 17] of the same molecule?
A: 6

Q: What about the “Blackgrass plant response rating” value [1, 18] of the same molecule?
A: 6

Q: What about the “Blackgrass plant response rating” value [1, 19] of the same molecule?
A: 9

Q: What about the “Bedstraw plant response rating” value [2, 13] of the same molecule?
A: 7

Q: And the “Plant response rating, Bedstraw” value [2, 14]?
A: 1

Q: What about the “Bedstraw plant response rating” value [2, 15] of the same molecule?
A: 3

Q: And the “Bedstraw plant response rating” value [2, 16]?
A: 0

Q: And the “Bedstraw plant response rating” value [2, 17]?
A: 7

Q: And the “Bedstraw plant response rating” value [2, 18]?
A: 8

Q: And the “Bedstraw plant response rating” value [2, 19]?
A: 4

Q: What about the “Barnyardgrass plant response rating” value ([3]; Pre-emergence, Rate 62 g/ha, scale 0 to 10, 0 is no effect, 10 is complete control) of the same molecule?
A: 0

Q: What about the “Barnyardgrass plant response rating” value ([3]; Rate 125 g/ha, Pre-emergence section (flood test species), scale 0 to 10, 0 no effect, 10 complete control) of the same molecule?
A: 0

Q: And the “Barnyardgrass plant response rating” value ([3]; Rate 250 g/ha, Pre-emergence (flood test species), scale 0 to 10, 0 is no effect, 10 is complete control)?
A: 0

Q: What about the “Barnyardgrass plant response rating” value ([3]; Rate 500 g/ha, Pre-emergence section of Table B, 0 to 10 scale (0 no effect, 10 complete control)) of the same molecule?
A: 0

Q: What about the “Plant response rating, B. signalgrass” value [4, 12] of the same molecule?
A: 4

Q: What about the “B. signalgrass plant response rating” value [4, 13] of the same molecule?
A: 5

Q: And the “B. signalgrass plant response rating” value [4, 7]?
A: 6

Q: What about the “Plant response rating, B. signalgrass” value [4, 14] of the same molecule?
A: 6

Q: And the “B. signalgrass plant response rating” value [4, 15]?
A: 7

Q: And the “B. signalgrass plant response rating” value [4, 17]?
A: 6

Q: What about the “B. signalgrass plant response rating” value [4, 18] of the same molecule?
A: 7

Q: And the “B. signalgrass plant response rating” value [4, 19]?
A: 8
